The values below come from patent publication US12427131B2, “Stimulators and/or activators of soluble guanylate cyclase (sGC) in combination with an inhibitor of neutral endopeptidase (NEP inhibitor) and/or an angiotensin AII antagonist and the use thereof” (BAYER PHARMA AKTIENGESELLSCHAFT, priority 2015, dated 2025).

The test system of one assay is conscious rats. Kind of assay: Radiotelemetric measurement of blood pressure and heart rate of conscious rats. Type of assay: in vivo, rat. The text has this: Radiotelemetric Measurement of Blood Pressure and Heart Rate of Conscious Rats
A commercially available telemetry system from Data Sciences International DSI, USA, was employed for the measurements on conscious rats (Wistar strain Unilever/WU or Spontaneous Hypertensive Rat/SHR) described below. The system consists of 3 main components: (1) implantable transmitters (PhysioTel® telemetry transmitter), (2) receivers (PhysioTel® receiver), which are linked via a multiplexer (DSI Data Exchange Matrix) to a (3) data acquisition computer. The telemetry system makes it possible to continuously record blood pressure, heart rate and body motion of conscious animals in their usual habitat.
The studies are conducted on adult female rats with a body weight of >200 g. After transmitter implantation, the experimental animals are housed singly in type III Makrolon® cages. They have free access to standard feed and water. The day/night rhythm in the test laboratory is set by changing the illumination of the room.
The telemetry transmitters used (e.g. PA-C40 HD-S10, DSI) are surgically implanted under aseptic conditions in the experimental animals at least 14 days before the first experimental use.
For the implantation, the fasted animals are anesthetized with isoflurane (IsoFlo®, Abbott, initiation 5%, maintenance 2%) and shaved and disinfected over a large area of their abdomens. After the abdominal cavity has been opened along the linea alba, the liquid-filled measuring catheter of the system is inserted into the descending aorta in the cranial direction above the bifurcation and fixed with tissue glue (Vetbond™, 3M). The transmitter housing is fixed intraperitoneally to the abdominal wall muscle, and the wound is closed layer by layer. Post-operatively, an antibiotic (Ursocyclin® 10%, 60 mg/kg s.c., 0.06 ml/100 g body weight, Serumwerk Bernburg AG, Germany) for infection prophylaxis and an analgesic (Rimadyl®, 4 mg/kg s.c., Pfizer, Germany) are administered.
Unless stated otherwise, the substances to be studied are administered orally to a group of animals in each case (n=6). In accordance with an administration volume of 2 ml/kg of body weight, the test substances are dissolved in suitable solvent mixtures. A solvent-treated group of animals is used as control.
The telemetry measuring system is configured for 24 animals.
Each of the instrumented rats living in the system is assigned a separate receiving antenna (RPC-1 Receiver, DSI). The implanted senders can be activated externally via an installed magnetic switch and are switched to transmission during the pre-run of the experiment. The signals emitted can be detected online by a data acquisition system (Dataquest™ A.R.T. for Windows, DSI or Ponemah, DSI) and processed accordingly.
In the standard procedure, the following are measured for 10-second periods in each case: (1) systolic blood pressure (SBP), (2) diastolic blood pressure (DBP), (3) mean arterial pressure (MAP), (4) heart rate (HR) and (5) activity (ACT). These parameters are measured over 24 hours after administration.
The acquisition of measurements is repeated under computer control at 5-minute intervals. The source data obtained as absolute values are corrected in the diagram with the currently measured barometric pressure (Ambient Pressure Reference Monitor, APR-1, DSI).
After the end of the experiment, the acquired individual data are sorted using the analysis software (Dataquest™ A.R.T. 4.1 Analysis or Ponemah, DSI). The 2 hour time point before substance administration is assumed as the blank value.
The data are smoothed over a presettable period by determination of the means (30 minute mean).

For assay [1] the following is noted: patients with heart failure, phase III; cited from earlier work.
The conditions of assay [2]: healthy subjects and hypertensive patients; cited from earlier work.
Where [3] appears, read: compound of the formula (29) alone, oral 3 mg/kg.
Where [4] appears, read: compound of the formula (29) alone, oral 10 mg/kg.
Setting [5] is: compound of the formula (6) alone, oral 0.3 mg/kg.

Regarding `C[C@H]([C@H](C(=O)Nc1cc(C(CC(=O)O)C2CC2)ccc1Cl)c1ccc(Cl)cc1)C(F)(F)F` (stereo partly drawn) [formula (29), 3-(4-chloro-3-{[(2S,3R)-2-(4-chlorophenyl)-4,4,4-trifluoro-3-methylbutanoyl]amino}phenyl)-3-cyclopropylpropanoic acid], the heart rate entry in the assay on conscious rats (compound of the formula (29) alone, oral 1 mg/kg) is “reflex tachycardia”; in the assay on conscious rats (setting [3]), “associated reflex tachycardia”; in the assay on conscious rats (setting [4]), “associated reflex tachycardia”. The “decrease in the mean arterial blood pressure” value with conscious rats (setting [3]) is given as “ca. −10%”; with conscious rats (setting [4]) it was ~15%.

On to `COC(=O)Nc1c(N)nc(-c2nn(Cc3ccccc3F)c3ncc(F)cc23)nc1N` [formula (6), methyl {4,6-diamino-2-[5-fluoro-1-(2-fluorobenzyl)-1H-pyrazolo[3,4-b]pyridine-3-yl]pyrimidin-5-yl}carbamate], for which, in the assay with conscious rats (setting [5]), the “decrease in the mean arterial blood pressure” value is “ca. −10%” and the heart rate result was “transient increase in heart rate”. Also, the “hemodynamic effects (blood pressure, heart rate)” value in the assay with conscious rats (compound of the formula (6) alone, oral dose 0.1 mg/kg) is “no hemodynamic effects”.

On to “trisodium [3-((1S,3R)-1-biphenyl-4-ylmethyl-3-ethoxycarbonyl-1-butylcarbamoyl)propionate-(S)-3′-methyl-2′-(pentanoyl{2″-(tetrazol-5-ylate)biphenyl-4′-ylmethyl}amino)butyrate] hemipentahydrate [LCZ696]”, for which the “risk of death and hospitalization” value in assay [1] is “reduction in the risk of death and hospitalization”. Besides, in assay [2], the “ANP and cGMP” value was “increase in ANP and cGMP”; the renin and angiotensin result is “compensatory increase in renin and angiotensin”.
